The Kinase Knowledgebase extract (Sharma et al. 2016)

How the values were obtained:
PIK3CB (Human) = PIK3CB (Human) (UniProt P42338); experiment: Inhibition of PIK3CB Kinase Activity
PIK3CA (human) = PIK3CA (human) (UniProt P42336); experiment: Inhibition of PIK3CA Kinase Activity
PIK3CD (Human) = PIK3CD (Human) (UniProt O00329); experiment: Enzyme Assay
PIK3CG (human) = PIK3CG (human) (UniProt P48736); experiment: Enzyme Assay
Chain of PIK3CG (human) (P48736 whole entry, looked up): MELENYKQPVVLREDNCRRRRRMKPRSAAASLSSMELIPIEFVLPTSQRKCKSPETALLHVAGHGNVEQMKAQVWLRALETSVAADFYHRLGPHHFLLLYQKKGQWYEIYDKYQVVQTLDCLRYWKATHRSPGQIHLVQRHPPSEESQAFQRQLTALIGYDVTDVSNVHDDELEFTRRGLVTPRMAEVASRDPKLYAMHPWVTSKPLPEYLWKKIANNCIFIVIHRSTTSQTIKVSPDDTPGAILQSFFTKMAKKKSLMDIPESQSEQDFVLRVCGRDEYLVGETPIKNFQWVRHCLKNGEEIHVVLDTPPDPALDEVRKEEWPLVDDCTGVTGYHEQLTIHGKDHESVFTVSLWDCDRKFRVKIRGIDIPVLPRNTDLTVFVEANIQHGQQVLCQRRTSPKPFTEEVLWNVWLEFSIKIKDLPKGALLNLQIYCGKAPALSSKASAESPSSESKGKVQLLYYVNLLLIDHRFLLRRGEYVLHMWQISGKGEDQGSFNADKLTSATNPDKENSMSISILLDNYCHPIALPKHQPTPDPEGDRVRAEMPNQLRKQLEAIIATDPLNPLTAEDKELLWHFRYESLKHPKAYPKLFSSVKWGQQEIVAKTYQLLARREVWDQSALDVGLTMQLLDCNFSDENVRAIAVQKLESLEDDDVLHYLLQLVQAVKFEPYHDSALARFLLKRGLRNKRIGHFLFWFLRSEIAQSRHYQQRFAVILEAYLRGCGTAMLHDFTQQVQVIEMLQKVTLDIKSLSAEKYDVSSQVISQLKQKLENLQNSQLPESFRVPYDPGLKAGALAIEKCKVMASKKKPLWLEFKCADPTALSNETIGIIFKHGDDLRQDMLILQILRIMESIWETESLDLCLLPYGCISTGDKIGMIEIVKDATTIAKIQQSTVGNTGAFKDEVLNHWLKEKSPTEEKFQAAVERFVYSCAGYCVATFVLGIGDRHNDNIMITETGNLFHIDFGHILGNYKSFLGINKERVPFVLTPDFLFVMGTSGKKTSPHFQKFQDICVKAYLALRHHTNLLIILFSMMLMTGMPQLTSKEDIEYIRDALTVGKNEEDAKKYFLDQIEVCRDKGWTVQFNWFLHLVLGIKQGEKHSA

Chain of PIK3CD (Human) (O00329 whole entry, looked up): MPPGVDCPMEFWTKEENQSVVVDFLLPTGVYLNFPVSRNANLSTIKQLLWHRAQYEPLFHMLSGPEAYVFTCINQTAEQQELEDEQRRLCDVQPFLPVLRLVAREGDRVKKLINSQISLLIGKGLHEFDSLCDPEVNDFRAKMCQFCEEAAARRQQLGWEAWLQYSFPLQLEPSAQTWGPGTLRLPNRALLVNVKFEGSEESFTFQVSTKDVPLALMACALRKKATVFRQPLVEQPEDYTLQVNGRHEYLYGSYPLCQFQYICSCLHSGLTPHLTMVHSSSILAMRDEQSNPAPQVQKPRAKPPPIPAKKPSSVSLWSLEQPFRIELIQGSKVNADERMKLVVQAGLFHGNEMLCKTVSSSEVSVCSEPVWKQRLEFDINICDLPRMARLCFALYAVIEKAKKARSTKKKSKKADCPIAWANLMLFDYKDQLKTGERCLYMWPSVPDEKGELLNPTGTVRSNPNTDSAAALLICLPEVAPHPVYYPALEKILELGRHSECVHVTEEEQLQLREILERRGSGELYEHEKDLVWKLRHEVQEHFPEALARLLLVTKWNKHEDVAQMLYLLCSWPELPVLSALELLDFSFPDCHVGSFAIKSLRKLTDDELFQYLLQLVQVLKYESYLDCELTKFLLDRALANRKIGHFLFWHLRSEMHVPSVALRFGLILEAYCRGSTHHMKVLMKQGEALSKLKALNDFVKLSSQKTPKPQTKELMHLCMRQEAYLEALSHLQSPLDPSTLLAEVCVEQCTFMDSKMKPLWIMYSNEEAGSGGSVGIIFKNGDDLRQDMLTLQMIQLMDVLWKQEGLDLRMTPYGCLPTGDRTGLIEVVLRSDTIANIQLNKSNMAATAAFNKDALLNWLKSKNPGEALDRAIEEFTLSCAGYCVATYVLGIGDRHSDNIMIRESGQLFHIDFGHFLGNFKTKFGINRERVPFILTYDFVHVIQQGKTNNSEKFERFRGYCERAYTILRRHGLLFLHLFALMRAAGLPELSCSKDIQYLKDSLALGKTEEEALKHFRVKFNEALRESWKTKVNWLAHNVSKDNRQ
Chain of PIK3CB (Human) (P42338 whole entry, looked up): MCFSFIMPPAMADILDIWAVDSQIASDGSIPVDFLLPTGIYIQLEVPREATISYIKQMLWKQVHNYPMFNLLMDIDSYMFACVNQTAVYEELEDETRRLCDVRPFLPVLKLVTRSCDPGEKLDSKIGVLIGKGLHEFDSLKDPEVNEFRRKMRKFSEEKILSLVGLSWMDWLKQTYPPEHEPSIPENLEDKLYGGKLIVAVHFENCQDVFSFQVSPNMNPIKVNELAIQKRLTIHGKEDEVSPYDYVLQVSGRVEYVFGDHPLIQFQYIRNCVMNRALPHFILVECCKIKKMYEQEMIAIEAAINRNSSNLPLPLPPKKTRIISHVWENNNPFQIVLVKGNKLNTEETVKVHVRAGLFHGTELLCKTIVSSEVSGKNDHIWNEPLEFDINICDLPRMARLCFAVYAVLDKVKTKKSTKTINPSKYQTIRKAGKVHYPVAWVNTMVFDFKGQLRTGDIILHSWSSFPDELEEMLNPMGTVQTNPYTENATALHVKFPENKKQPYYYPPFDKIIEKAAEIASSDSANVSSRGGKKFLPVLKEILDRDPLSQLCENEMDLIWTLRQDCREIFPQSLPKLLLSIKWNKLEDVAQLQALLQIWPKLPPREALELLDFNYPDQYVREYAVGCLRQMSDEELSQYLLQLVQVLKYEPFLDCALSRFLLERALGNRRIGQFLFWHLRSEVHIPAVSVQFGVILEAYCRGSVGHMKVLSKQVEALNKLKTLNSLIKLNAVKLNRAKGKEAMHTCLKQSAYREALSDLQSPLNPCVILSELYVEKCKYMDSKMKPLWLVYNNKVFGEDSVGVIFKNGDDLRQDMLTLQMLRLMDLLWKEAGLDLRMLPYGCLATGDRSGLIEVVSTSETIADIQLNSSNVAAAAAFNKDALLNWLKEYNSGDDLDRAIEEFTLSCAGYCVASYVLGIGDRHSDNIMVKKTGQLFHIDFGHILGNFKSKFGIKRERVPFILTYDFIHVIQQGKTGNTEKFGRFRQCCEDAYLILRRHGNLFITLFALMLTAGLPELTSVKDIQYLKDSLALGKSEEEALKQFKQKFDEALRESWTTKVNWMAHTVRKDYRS
Chain of PIK3CA (human) (P42336 whole entry, looked up): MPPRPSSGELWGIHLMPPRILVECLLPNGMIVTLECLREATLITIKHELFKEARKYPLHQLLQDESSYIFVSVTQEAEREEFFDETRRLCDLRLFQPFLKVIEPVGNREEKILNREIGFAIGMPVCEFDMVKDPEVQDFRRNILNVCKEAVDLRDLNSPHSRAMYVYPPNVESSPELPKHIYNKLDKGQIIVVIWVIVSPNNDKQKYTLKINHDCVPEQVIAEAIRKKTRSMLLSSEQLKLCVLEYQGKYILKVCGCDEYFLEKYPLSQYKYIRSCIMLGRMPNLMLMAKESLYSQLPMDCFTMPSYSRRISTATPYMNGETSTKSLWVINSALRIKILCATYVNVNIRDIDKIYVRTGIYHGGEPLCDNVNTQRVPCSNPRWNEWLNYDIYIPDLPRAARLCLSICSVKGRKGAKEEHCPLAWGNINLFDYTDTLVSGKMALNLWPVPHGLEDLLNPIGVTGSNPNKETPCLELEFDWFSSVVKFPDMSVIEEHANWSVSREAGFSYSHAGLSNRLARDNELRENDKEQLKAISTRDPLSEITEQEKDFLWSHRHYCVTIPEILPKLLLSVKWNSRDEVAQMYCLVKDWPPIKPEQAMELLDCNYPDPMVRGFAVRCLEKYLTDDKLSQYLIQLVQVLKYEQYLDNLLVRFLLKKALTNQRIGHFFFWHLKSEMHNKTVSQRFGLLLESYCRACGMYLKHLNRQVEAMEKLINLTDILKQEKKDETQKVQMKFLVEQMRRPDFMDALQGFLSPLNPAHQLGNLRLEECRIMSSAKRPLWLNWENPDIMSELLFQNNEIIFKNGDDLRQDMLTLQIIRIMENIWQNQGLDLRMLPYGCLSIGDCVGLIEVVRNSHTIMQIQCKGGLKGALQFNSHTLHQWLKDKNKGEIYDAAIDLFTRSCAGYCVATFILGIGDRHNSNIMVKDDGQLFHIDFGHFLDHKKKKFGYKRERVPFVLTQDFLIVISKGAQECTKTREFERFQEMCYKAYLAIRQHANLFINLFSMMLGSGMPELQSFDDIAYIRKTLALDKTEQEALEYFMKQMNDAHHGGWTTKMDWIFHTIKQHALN

CNC(=O)Nc1nc2ccc(-c3cn(C(C)C)c4ncnc(N)c34)cc2s1
IC50 (PIK3CB (Human)): ≤ 0.05 µM | IC50 (PIK3CA (human)): ≤ 0.05 µM | IC50 (PIK3CD (Human)): ≤ 0.05 µM | IC50 (PIK3CG (human)): ≤ 0.05 µM

CNC(=O)Nc1nc2ccc(-c3cn(C4CCN(C(C)=O)CC4)c4ncnc(N)c34)cc2s1
IC50 (PIK3CB (Human)): 0.05 to 0.1 µM | IC50 (PIK3CA (human)): ≤ 0.05 µM | IC50 (PIK3CD (Human)): ≤ 0.05 µM | IC50 (PIK3CG (human)): ≤ 0.05 µM

CC(C)n1nc(-c2cc3cc(O)cc(F)c3[nH]2)c2c(N)ncnc21
IC50 (PIK3CD (Human)): 0.05 to 0.1 µM | IC50 (PIK3CG (human)): 0.1 to 0.5 µM

CC(C)n1nc(-c2cc3cc(O)cc(Cl)c3[nH]2)c2c(N)ncnc21
IC50 (PIK3CD (Human)): 0.025 to 0.05 µM | IC50 (PIK3CG (human)): 0.025 to 0.05 µM

CNC(=O)Nc1nc2ccc(-c3nn(C(C)C)c4ncnc(N)c34)cc2s1
IC50 (PIK3CA (human)): ≤ 0.05 µM | IC50 (PIK3CD (Human)): ≤ 0.05 µM | IC50 (PIK3CG (human)): ≤ 0.05 µM

CNc1nc2ccc(-c3nn(C(C)C)c4ncnc(N)c34)cc2s1
IC50 (PIK3CA (human)): 0.05 to 0.1 µM | IC50 (PIK3CD (Human)): 0.1 to 0.5 µM | IC50 (PIK3CG (human)): ≤ 0.05 µM

CC(C)n1nc(-c2ccc3nc(NC(=O)C4CC4)sc3c2)c2c(N)ncnc21
IC50 (PIK3CA (human)): 0.5 to 1 µM

CC(C)n1nc(-c2ccc3nc(N)sc3c2)c2c(N)ncnc21
IC50 (PIK3CA (human)): 0.1 to 0.5 µM | IC50 (PIK3CD (Human)): 0.05 to 0.1 µM | IC50 (PIK3CG (human)): ≤ 0.05 µM

CC(C)n1nc(-c2cc3ccc(O)cc3[nH]2)c2c(N)ncnc21
IC50 (PIK3CA (human)): 0.1 to 0.5 µM | IC50 (PIK3CD (Human)): 0.1 to 0.5 µM | IC50 (PIK3CG (human)): 0.1 to 0.5 µM

CC(C)n1nc(-c2ccc3nc(NCCO)sc3c2)c2c(N)ncnc21
IC50 (PIK3CA (human)): 0.5 to 1 µM

CC(=O)Nc1nc2ccc(-c3nn(C4CCCC4)c4ncnc(N)c34)cc2s1
IC50 (PIK3CA (human)): ≤ 0.05 µM | IC50 (PIK3CD (Human)): ≤ 0.05 µM | IC50 (PIK3CG (human)): ≤ 0.05 µM

CC(=O)Nc1nc2ccc(-c3nn(C)c4ncnc(N)c34)cc2s1
IC50 (PIK3CA (human)): 0.5 to 1 µM

CCC(=O)Nc1nc2ccc(-c3nn(C(C)C)c4ncnc(N)c34)cc2s1
IC50 (PIK3CA (human)): 0.1 to 0.5 µM

CCNc1nc2ccc(-c3nn(C(C)C)c4ncnc(N)c34)cc2s1
IC50 (PIK3CA (human)): 0.1 to 0.5 µM | IC50 (PIK3CD (Human)): 0.5 to 1 µM | IC50 (PIK3CG (human)): 0.1 to 0.5 µM

CC(=O)Nc1nc2ccc(-c3nn(C(C)C)c4ncnc(N)c34)cc2s1
IC50 (PIK3CA (human)): 0.1 to 0.5 µM | IC50 (PIK3CD (Human)): ≤ 0.05 µM | IC50 (PIK3CG (human)): ≤ 0.05 µM

CNC(=O)Nc1nc2ccc(-c3cn(C4CCOCC4)c4ncnc(N)c34)cc2s1
IC50 (PIK3CB (Human)): ≤ 0.05 µM | IC50 (PIK3CA (human)): ≤ 0.05 µM | IC50 (PIK3CD (Human)): ≤ 0.05 µM | IC50 (PIK3CG (human)): ≤ 0.05 µM

CC(=O)Nc1nc2ccc(-c3nn(C4CCC4)c4ncnc(N)c34)cc2s1
IC50 (PIK3CA (human)): 0.05 to 0.1 µM | IC50 (PIK3CD (Human)): 0.05 to 0.1 µM | IC50 (PIK3CG (human)): ≤ 0.05 µM

CC(C)n1nc(-c2cc3cccc(O)c3[nH]2)c2c(N)ncnc21
IC50 (PIK3CD (Human)): 0.1 to 0.5 µM | IC50 (PIK3CG (human)): 0.1 to 0.5 µM

CC(=O)Nc1nc2ccc(-c3nn(C4CCOCC4)c4ncnc(N)c34)cc2s1
IC50 (PIK3CA (human)): 0.1 to 0.5 µM | IC50 (PIK3CD (Human)): ≤ 0.05 µM | IC50 (PIK3CG (human)): ≤ 0.05 µM

CCn1nc(-c2ccc3nc(NC(C)=O)sc3c2)c2c(N)ncnc21
IC50 (PIK3CA (human)): 0.05 to 0.1 µM | IC50 (PIK3CD (Human)): ≤ 0.05 µM | IC50 (PIK3CG (human)): ≤ 0.05 µM
